The test has as its target T1, VAV1 (Homo sapiens, UniProt P15498+Q96SW2).
T1 construct: A heterozygous VAV1 C-terminal HiBiT knock-in pool was generated at Monte Rosa Therapeutics from a clonal Jurkat cell; endogenous in cells; host or cells: Jurkat clone stably expressing LgBiT, homozygous GSPT1-G575N; heterozygous VAV1-HiBiT knock-in pool
As to the kind of experiment: VAV1 degradation activity, VAV1-HiBiT knock-in Jurkat luminescence assay (Example A, Table 1). In kind it is cell-based. Conditions: VAV1-HiBiT knock-in Jurkat cells, luminescence read at 6 and 24 hours; for Dmax: Jurkat. The procedure, abridged: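 Jurkat cells carrying VAV1-HiBiT knock-in, plated in RPMI/10% FBS with Endurazine live-cell substrate and pre-incubated ~16 h at 37° C. Compound dosed from 10 μM stock; luminescence read 6 and 24 h later. Response normalised to plate negative/positive controls, EC50 from 3-parameter logistic fit (hillslope 1).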

Where [1] appears, read: read-out: VAV1 DC50 (nM), class.

Where two headings read alike, the source gives them in different places.

One may read the Dmax as the greatest extent of degradation seen. By DC50 is commonly meant the concentration giving 50% degradation. On to `O=C1CCC(c2cccc(-c3ccc(N4C(=O)OCCC45CCC5)nc3)c2Cl)C(=O)N1` (stereo not drawn) [Compound 359, 3-(2-chloro-3-(6-(6-oxo-7-oxa-5-azaspiro-[3.5]nonan-5-yl)pyridin-3-yl)phenyl)piperidine-2,6-dione], for which the Dmax (read-out: VAV1 Dmax %) was determined as 95% and the Dmax (read-out: VAV1 Dmax %, class) is above 90%. In addition, the DC50 was 13.3 nM (read-out: VAV1 DC50) and at most 100 nM under setting [1].

On to `O=C1CCC(c2cccc(-c3ccc(Oc4ncccn4)cc3)c2Cl)C(=O)N1` (stereo not drawn) [Compound 360, 3-(2-chloro-4′-(pyrimidin-2-yloxy)-[1,1′-biphenyl]-3-yl)piperidine-2,6-dione], for which the Dmax (read-out: VAV1 Dmax %) turned out to be 96.5% and the Dmax (read-out: VAV1 Dmax %, class) is above 90%. The DC50 by setting is: (read-out: VAV1 DC50) 6.85 nM; under setting [1], at most 100 nM.

Regarding `O=C1CCC(c2cc(F)cc(-c3ccc(-n4ccccc4=O)cc3)c2Cl)C(=O)N1` (stereo not drawn) [Compound 361, 3-(2-chloro-5-fluoro-4′-(2-oxopyridin-1(2H)-yl)-[1,1′-biphenyl]-3-yl)piperidine-2,6-dione], the Dmax reads like this: (read-out: VAV1 Dmax %) 84.4%; (read-out: VAV1 Dmax %, class) 60 to 90%. Also, the DC50 is, setting by setting: (read-out: VAV1 DC50) 76.4 nM; under setting [1], at most 100 nM.

Regarding `O=C1CCC(c2cccc(-c3cnc(N4C(=O)CCCC45CC5)c(F)c3)c2Cl)C(=O)N1` (stereo not drawn) [Compound 362, 3-(2-chloro-3-(5-fluoro-6-(5-oxo-4-azaspiro[2.5]octan-4-yl)pyridin-3-yl)phenyl)piperidine-2,6-dione], the Dmax (read-out: VAV1 Dmax %) is 87.5% and the Dmax (read-out: VAV1 Dmax %, class) lay in the range of 60 to 90%. Further, the DC50 was 69.6 nM (read-out: VAV1 DC50) and at most 100 nM under setting [1].

As to `Cn1ccc(Cn2c(=O)n(C)c3cc(-c4cccc(C5CCC(=O)NC5=O)c4Cl)ccc32)n1` (stereo not drawn) [Compound 363, 3-(2-chloro-3-(3-methyl-1-((1-methyl-1H-pyrazol-3-yl)methyl)-2-oxo-2,3-dihydro-1H-benzo[d]imidazol-5-yl)phenyl)piperidine-2,6-dione], the Dmax (read-out: VAV1 Dmax %) turned out to be 97.1% and the Dmax (read-out: VAV1 Dmax %, class) was above 90%. The DC50 is 4.86 nM (read-out: VAV1 DC50) and at most 100 nM under setting [1].

On to `O=C1CCC(c2cccc(-c3cnc(N4C(=O)CCC45CC5)c(F)c3)c2Cl)C(=O)N1` (stereo not drawn) [Compound 364, 3-(2-chloro-3-(5-fluoro-6-(5-oxo-4-azaspiro[2.4]heptan-4-yl)pyridin-3-yl)phenyl)piperidine-2,6-dione], for which the Dmax (read-out: VAV1 Dmax %) was found to be 71.7% and the Dmax (read-out: VAV1 Dmax %, class) fell in the range of 60 to 90%. Further, the DC50 is 234 nM (read-out: VAV1 DC50) and 100 to 1000 nM under setting [1].

Take `O=C1CCC(c2cccc(-c3cnc(N4C(=O)CCC45CCC5)c(F)c3)c2Cl)C(=O)N1` (stereo not drawn) [Compound 365, 3-(2-chloro-3-(5-fluoro-6-(6-oxo-5-azaspiro[3.4]octan-5-yl)pyridin-3-yl)phenyl)piperidine-2,6-dione]: the Dmax is, setting by setting: (read-out: VAV1 Dmax %) 88%; (read-out: VAV1 Dmax %, class) 60 to 90%. For the same compound, the DC50 is, setting by setting: (read-out: VAV1 DC50) 55 nM; under setting [1], at most 100 nM.

Consider `CN1CCC2(CC2)N(c2ccc(-c3cccc(C4CCC(=O)NC4=O)c3Cl)cc2)C1=O` (stereo not drawn) [Compound 366, 3-(2-chloro-4′-(6-methyl-5-oxo-4,6-diazaspiro[2.5]octan-4-yl)-[1,1′-biphenyl]-3-yl)piperidine-2,6-dione], for which the Dmax reads like this: (read-out: VAV1 Dmax %) 97.8%; (read-out: VAV1 Dmax %, class) above 90%. For the same compound, the DC50 (read-out: VAV1 DC50) was 1.87 nM and the DC50 under setting [1] was at most 100 nM.

Take `O=C1CCC(c2cccc(-c3cnc(N4CCCCC4=O)c(F)c3)c2Cl)C(=O)N1` (stereo not drawn) [Compound 369, 3-(2-chloro-3-(5-fluoro-6-(2-oxopiperidin-1-yl)pyridin-3-yl)phenyl)piperidine-2,6-dione]: the Dmax was 69.5% (read-out: VAV1 Dmax %) and 60 to 90% (read-out: VAV1 Dmax %, class). Further, the DC50 is, setting by setting: (read-out: VAV1 DC50) 331 nM; under setting [1], 100 to 1000 nM.

As for `O=C1CCC(c2cccc(-c3cnc(Cc4ncco4)c(F)c3)c2Cl)C(=O)N1` (stereo not drawn) [Compound 370, 3-(2-chloro-3-(5-fluoro-6-(oxazol-2-ylmethyl)pyridin-3-yl)phenyl)piperidine-2,6-dione], the Dmax is 58.1% (read-out: VAV1 Dmax %) and below 60% (read-out: VAV1 Dmax %, class). Moreover, the DC50 is, setting by setting: (read-out: VAV1 DC50) 1570 nM; under setting [1], above 1000 nM.

Consider `CN1CC2(CCC(=O)N2c2ccc(-c3cccc(C4CCC(=O)NC4=O)c3Cl)cc2)C1` (stereo not drawn) [Compound 371, 3-(2-chloro-4′-(2-methyl-6-oxo-2,5-diazaspiro[3.4]octan-5-yl)-[1,1′-biphenyl]-3-yl)piperidine-2,6-dione], for which the maximal degradation (Dmax) was 37.8% (read-out: VAV1 Dmax %) and below 60% (read-out: VAV1 Dmax %, class). The DC50 is at least 10000 nM (read-out: VAV1 DC50) and above 1000 nM under setting [1].

Take `O=C1CCC(c2cccc(-c3ccc(N4CCCNC4=O)cc3)c2Cl)C(=O)N1` (stereo not drawn) [Compound 372, 3-(2-chloro-4′-(2-oxotetrahydropyrimidin-1(2H)-yl)-[1,1′-biphenyl]-3-yl)piperidine-2,6-dione]: the Dmax (read-out: VAV1 Dmax %) amounted to 94.4% and the Dmax (read-out: VAV1 Dmax %, class) was above 90%. The DC50 is, setting by setting: (read-out: VAV1 DC50) 10 nM; under setting [1], at most 100 nM.

For `O=C1CCC(c2cccc(-c3ccc(Cc4ccco4)cc3)c2Cl)C(=O)N1` (stereo not drawn) [Compound 373, 3-(2-chloro-4′-(furan-2-ylmethyl)-[1,1′-biphenyl]-3-yl)piperidine-2,6-dione], the Dmax by setting is: (read-out: VAV1 Dmax %) 97.2%; (read-out: VAV1 Dmax %, class) above 90%. In addition, the DC50 (read-out: VAV1 DC50) was found to be 25.6 nM and the DC50 under setting [1] was at most 100 nM.

`O=C1CCC(c2cccc(-c3ccc(Cc4cccnc4)cc3)c2Cl)C(=O)N1` (stereo not drawn) [Compound 374, 3-(2-chloro-4′-(pyridin-3-ylmethyl)-[1,1′-biphenyl]-3-yl)piperidine-2,6-dione]: the Dmax reads like this: (read-out: VAV1 Dmax %) 97.4%; (read-out: VAV1 Dmax %, class) above 90%. Also, the DC50 was 10.2 nM (read-out: VAV1 DC50) and at most 100 nM under setting [1].

`COC(=O)c1ccc(Cc2ccc(-c3cccc(C4CCC(=O)NC4=O)c3Cl)cc2)n1C` (stereo not drawn) [Compound 375, methyl 5-((2′-chloro-3′-(2,6-dioxopiperidin-3-yl)-[1,1′-biphenyl]-4-yl)methyl)-1-methyl-1H-pyrrole-2-carboxylate]: the Dmax runs as follows: (read-out: VAV1 Dmax %) 98%; (read-out: VAV1 Dmax %, class) above 90%. Also, the DC50 is, setting by setting: (read-out: VAV1 DC50) 14.2 nM; under setting [1], at most 100 nM.

Consider `O=C1CCC(c2cccc(-c3ccc(Cc4cncnc4)cc3)c2Cl)C(=O)N1` (stereo not drawn) [Compound 376, 3-(2-chloro-4′-(pyrimidin-5-ylmethyl)-[1,1′-biphenyl]-3-yl)piperidine-2,6-dione], for which the Dmax by setting is: (read-out: VAV1 Dmax %) 95.8%; (read-out: VAV1 Dmax %, class) above 90%. Besides, the DC50 is 15.2 nM (read-out: VAV1 DC50) and at most 100 nM under setting [1].

For the compound `O=C1CCC(c2cccc(-c3ccc(Cc4cccs4)cc3)c2Cl)C(=O)N1` (stereo not drawn) [Compound 377, 3-(2-chloro-4′-(thiophen-2-ylmethyl)-[1,1′-biphenyl]-3-yl)piperidine-2,6-dione], the Dmax reads like this: (read-out: VAV1 Dmax %) 98.8%; (read-out: VAV1 Dmax %, class) above 90%. The DC50 by setting is: (read-out: VAV1 DC50) 17.2 nM; under setting [1], at most 100 nM.

Consider `CN1CCC(C)(C)N(c2ccc(-c3cccc(C4CCC(=O)NC4=O)c3Cl)cc2)C1=O` (stereo not drawn) [Compound 378, 3-(2-chloro-4′-(3,6,6-trimethyl-2-oxotetrahydropyrimidin-1(2H)-yl)-[1,1′-biphenyl]-3-yl)piperidine-2,6-dione], for which the Dmax was 98.3% (read-out: VAV1 Dmax %) and above 90% (read-out: VAV1 Dmax %, class). Moreover, the DC50 runs as follows: (read-out: VAV1 DC50) 1.56 nM; under setting [1], at most 100 nM.

For `O=C1CCC(c2cccc(-c3ccc4c(c3)CCCO4)c2Cl)C(=O)N1` (stereo not drawn) [Compound 381, 3-[2-chloro-3-(3,4-dihydro-2H-1-benzopyran-6-yl)phenyl]piperidine-2,6-dione], the Dmax reads like this: (read-out: VAV1 Dmax %) 96.5%; (read-out: VAV1 Dmax %, class) above 90%. Also, the DC50 runs as follows: (read-out: VAV1 DC50) 35.9 nM; under setting [1], at most 100 nM.

With `CN1CCCN(c2ncc(-c3cccc(C4CCC(=O)NC4=O)c3Cl)cc2F)C1=O` (stereo not drawn) [Compound 382, 3-(2-chloro-3-(5-fluoro-6-(3-methyl-2-oxotetrahydropyrimidin-1(2H)-yl)pyridin-3-yl)phenyl)piperidine-2,6-dione], the Dmax is 76% (read-out: VAV1 Dmax %) and 60 to 90% (read-out: VAV1 Dmax %, class). Besides, the DC50 is 167 nM (read-out: VAV1 DC50) and 100 to 1000 nM under setting [1].

For the compound `CN1CCCN(Cc2ncc(-c3cccc(C4CCC(=O)NC4=O)c3Cl)cc2F)C1=O` (stereo not drawn) [Compound 383, 3-(2-chloro-3-(5-fluoro-6-((3-methyl-2-oxotetrahydropyrimidin-1(2H)-yl)methyl)pyridin-3-yl)phenyl)piperidine-2,6-dione], the Dmax is 80.2% (read-out: VAV1 Dmax %) and 60 to 90% (read-out: VAV1 Dmax %, class). For the same compound, the DC50 is 113 nM (read-out: VAV1 DC50) and 100 to 1000 nM under setting [1].

In the case of `O=C1CCC(c2cccc(-c3ccc(N4C(=O)CCC45CC5)nc3)c2Cl)C(=O)N1` (stereo not drawn) [Compound 384, 3-(2-chloro-3-(6-(5-oxo-4-azaspiro[2.4]heptan-4-yl)pyridin-3-yl)phenyl)piperidine-2,6-dione], the Dmax reads like this: (read-out: VAV1 Dmax %) 75.5%; (read-out: VAV1 Dmax %, class) 60 to 90%. Besides, the DC50 was 122 nM (read-out: VAV1 DC50) and 100 to 1000 nM under setting [1].

Consider `O=C1CCC(c2cccc(-c3ccc(Cc4ncco4)c(F)c3)c2Cl)C(=O)N1` (stereo not drawn) [Compound 385, 3-(2-chloro-3′-fluoro-4′-(oxazol-2-ylmethyl)-[1,1′-biphenyl]-3-yl)piperidine-2,6-dione], for which the Dmax was 97.8% (read-out: VAV1 Dmax %) and above 90% (read-out: VAV1 Dmax %, class). Further, the DC50 (read-out: VAV1 DC50) came to 7 nM and the DC50 under setting [1] is at most 100 nM.

Take `O=C1CCC(c2cccc(-c3ccc(N4CC5(COC5)CC4=O)cc3)c2Cl)C(=O)N1` (stereo not drawn) [Compound 386, 3-(2-chloro-4′-(7-oxo-2-oxa-6-azaspiro[3.4]octan-6-yl)-[1,1′-biphenyl]-3-yl)piperidine-2,6-dione]: the Dmax runs as follows: (read-out: VAV1 Dmax %) 29.2%; (read-out: VAV1 Dmax %, class) below 60%. In addition, the DC50 is at least 10000 nM (read-out: VAV1 DC50) and above 1000 nM under setting [1].

Values taken from patent US12257247B2 (Monte Rosa Therapeutics AG, priority 2023, dated 2025).
